Data on seven molecules can be found in patent US20080318070A1, “Water-Soluble Preflux and Usage of the Same” (SHIKOKU CHEMICALS CORPORATION, priority 2005, published 2008).

The nature of data set [1]: Solubilization test of imidazole compounds. As to conditions: 0.20 g imidazole compound dissolved in 2.0 g carboxylic acid compound; ion-exchange water added until solution became clouded; larger = better solubilization. The class given is physicochemical. The procedure:
Solubilization Test of Imidazole Compounds
After 0.20 g of 2-pheny-(3,4-dichlorophenyl)imidazole was dissolved in 2.0 g of the carboxylic acid compound for use in the invention, there was measured an amount of water required until the solution became clouded when ion-exchange water was added. The larger amount of water is judged to be more excellent in imidazole compound-solubilization performance of the carboxylic acid compound.
It is recognized that a chemical structure wherein an alkoxy group (R^1—O—) and a carboxymethyl group (—CH2COOH) or a carboxyethyl group (—C2H4COOH) is combined via an alkylene ether chain (—CH2CH(R^2)—O—) enhances the imidazole compound-solubilization performance.

The conditions of data set [2]: reported; cited from earlier work.

Structures are written as SMILES.

`CCOCC(=O)O` [Compound A, 2-Ethoxyacetic acid]: the “Amount of water added” value in data set [1] stood at 3.3 mL.

With `CCOCCOCCOCC(=O)O` [Compound C, 2-[2-(2-ethoxyethoxy)ethoxy]acetic acid], the “Amount of water added” value in data set [1] amounted to 3.6 mL.

As for `CCCOCC(C)OCC(C)OCC(=O)O` (centres unmarked) [Compound F, 2-[2-(2-propoxy-1-methylethoxy)-1-methylethoxy]acetic acid], in data set [1], the “Amount of water added” value worked out at 3.0 mL.

Turning to `COCC(=O)O` [methoxyacetic acid], in data set [2], the “metabolism in the living body” value is reported as “difficult to metabolize in the living body” and the toxic effect entry is on record as “causing testicular atrophy or teratogenicity”.

Take `CCCCOCC(=O)O` [2-(n-Butoxy)acetic acid]: the “Amount of water added” value in data set [1] worked out at 1.0 mL.

Consider `CCCOCC(=O)O` [2-(n-Propoxy)acetic acid], for which, in data set [1], the “Amount of water added” value is 2.8 mL.

Consider `CCCCOCC(C)OCC(C)OCC(C)OCC(=O)O` (centres unmarked) [Compound G, 2-{2-[2-(2-butoxy-1-methylethoxy)-1-methylethoxy]-1-methylethoxy}acetic acid], for which, in data set [1], the “Amount of water added” value was 2.0 mL.
